Reference: US20070105944A1, “Taxane metabolites” (priority 2002, published 2007)
Where “and” joins values, the source holds several entries; their conditions need not be identical. Equal values may be shown once.

Legend:
sc M109 = type: in vivo; settings: oral doses as high as 160 mg/kg/inj, murine tumor models (sc M109)
From the text: […]; see Eiseman et al., Second NCI Workshop on Taxol and Taxus (September 1992); Suffness et.al. in TAXOL Science and Applications (CRC Press 1995). […]. Another report by J. Terwogt et. al. from The Lancet, Jul. […] […].

[1] = up to 160 mg/kg/day, Suffness et al.; cited from earlier work
[2] = prior art; cited from earlier work
[3] = oral; quote from WO98/53811; cited from earlier work
human tumor xenografts = experiment: Oral paclitaxel against human tumor xenografts in athymic mice or rats; settings: human tumor xenografts implanted in athymic mice or athymic rats
[4] = Biotransformation of [14C]Compound I in bile duct cannulated rats after a single oral dose; type: in vivo, rat; settings: single 25-mg/kg oral dose
From the text: A single 25-mg/kg oral dose of [^14C] Compound I, as a solution in cremophore
EL/ethanol/water (10:10:80, v/v/v), was separately administered to two male bile duct cannulated (BDC) rats. Within 24 hr after dosing, an average of 25.8% of the administered dose was excreted in bile, The corresponding value in urine was 3.9%. […] Thus, the oral absorption of [^14C] Compound I in rats was estimated to be at least 30%. Following the oral dose, the concentration of total radioactivity in plasma was measurable up to 24 hr and averaged 349 ng-equiv./mL at that time. The parent drug was a prominent radioactive component in plasma. At 24 hr after dosing, the concentration of Compound I in plasma was estimated to be 61 ng/mL. More than 20 hydrolytic and oxidative metabolites of [^14C] Compound I were detected in plasma.
Bile duct and jugular vein cannulated (BDC/JVC) male Sprague-Dawley rats (Hla®: [SD] CVF®, 6-10 weeks old and weighing 300±50 g at dosing), were purchased from Hilltop Laboratories (Scottdale, Pa.). Upon receipt, each rat was marked on the tail and given an ear tag with a unique identification number.
The dosing solution was prepared as follows: 7.96 mg of non-radiolabeled Compound I, 10.16 mg of [^13C] Compound I and 2.99 mg of [^14C] Compound I (77.7 μCi of radioactivity) were weighed into a vial. The compounds were then dissolved in 1.6 mL of a cremophore EL/ethanol solution (1:1, v/v) and diluted with 6.4 mL of sterile water. The total weight of the dosing solution was 7.53 g. The concentration of [^14C] Compound I in the dosing solution was […] (10.32 μCi/g) of solution. The nominal specific activity was 3.68 μCi/mg (8170 dpm/μg).
Two rats, housed individually in Nalgene metabolic cages, were each given a single 25-mg/kg nominal dose of [^14C] Compound I orally by gavage. The actual amount of dosing solution administered to each animal was determined by weighing the loaded dosing syringe before dose administration and the emptied syringe after dose administration. Bile was collected from each animal between −1-0 (pre-dose), 0-6, 6-12, and 12-24 hr after dosing. Urine was collected between −24-0 (predose), 0-12, and 12-24 hr after dosing. Both the bile and urine samples were collected in tubes set on dry ice. At 0.5, 6, and 12 hr after dosing, blood samples (−1.2 mL) were collected from the jugular vein cannula into a heparinized syringe. At 24 hr after dosing, animals were sacrificed by CO2 asphyxiation. Terminal blood was collected by cardiac puncture into a heparinized vacutainer. Predose blood sample was collectd from a separate control animal. Blood was centrifuged at 2,500 rpm and 4° C. for 10 min to separate the plasma. Bile, urine, and plasma samples were weighed and stored at −20° C. prior to analysis.
Concentrations of radioactivity in bile, urine, and plasma samples were determined by counting duplicate aliquots of each sample in 5 mL of Ready Value™ cocktail (Beckman Instrunents, Inc.) with a Beckman LS 3801, LS 5000TD, or LS6000TA Liquid Scintillation Counter for 10 min or until the 2-sigma error was less than or equal to 2%, whichever came first. Quench correction was performed using an external standard method. Most of the HPLC fractions used to prepare reconstructed HPLC chromatograms were counted for 5 minutes except for plasma samples, which were counted for 10 minutes.
A portion (−20% of each sample) of the 0-6, 6-12, and 12-24 hr bile samples from two rats were pooled by interval to prepare three pooled samples. A portion (−20% of each sample) of the 0-6, 6-12, and 12-24 hr bile samples from two rats were pooled together to prepare a 0-24 hr sample. Duplicate 10-μL aliquots of each pooled sample were taken for radioactivity counting.
A portion (−20% of each sample) of the 0-12 and 12-24 hr urine samples from two rats were pooled by interval to prepare two pooled samples. […]

[5] = [14C]Compound I incubation with mouse liver microsomes (MLM), metabolite profile; type: in vitro ADME; settings: 1 hr incubation, 37° C., 20 μM, NADPH
Method: (§1) Each mL of the incubation mixture, in 100 mM of potassium phosphate buffer (pH 7.4), contained: 20 nmol of test article, 1 mg of microsomal protens, 3 μmol of NADPH and 10 μmol of magnesium chloride. The final concentrations were: test article, 20 μM; microsomal proteins, 1 mg/mL; NADPH, 3 mM; magnesium chloride, 10 mM; acetonitrile, 1% (v/v). 7-EC (100 μM) was used as the positive control for enzyme activity in the microsomes of all species. Two negative controls, one without NADPH and the other using heat-treated microsomes (5 min in boiling water), were carried out to determine the stability of the test article. […]
(§2) Incubations were carried out aerobically at 37° C. with constant shaking. […] At the end of incubation, duplicate aliquots (10 μL) of the incubation mixture of the negative controls and the test article incubations were taken for liquid scintillation counting of radioactivity. […]
(§3) The radiochemical purity of [^14C]Compound I and the metabolite profiles of the compound in the methanol extract of liver microsomal incubations were determined by HPLC radiochromatograpby using the following system:
(§4) Fractions of the HPLC effluent were collected (0.25 min/fraction) into a 96-well deep luma plates and the collected fractions were dried using Savant Automatic SpeedVac system. Radioactivity was then determined with a Packard Top Count-NXT counter. […]

[6] = [14C]Compound I incubation with rat liver microsomes (RLM), metabolite profile; type: in vitro ADME; settings: 1 hr incubation, 37° C., 20 μM, NADPH
Method: as §1, §2, §3, §4

[7] = [14C]Compound I incubation with dog liver microsomes (DLM), metabolite profile; type: in vitro ADME; settings: 1 hr incubation, 37° C., 20 μM, NADPH
Method: as §1, §2, §3, §4

[8] = [14C]Compound I incubation with monkey liver microsomes (MKLM), metabolite profile; type: in vitro ADME; settings: 1 hr incubation, 37° C., 20 μM, NADPH
Method: as §1, §2, §3, §4

[9] = [14C]Compound I incubation with human liver microsomes (HLM), metabolite profile; type: in vitro ADME; settings: 1 hr incubation, 37° C., 20 μM, NADPH
Method: as §1, §2, §3, §4

[10] = Rank order of metabolic stability in liver microsomes of the five species; type: in vitro ADME; settings: 1 hr incubation
Method: Each mL of the incubation mixture, in 100 mM of potassium phosphate buffer (pH 7.4), contained: 20 nmol of test article, 1 mg of microsomal protens, 3 μmol of NADPH and 10 μmol of magnesium chloride. The final concentrations were: test article, 20 μM; microsomal proteins, 1 mg/mL; NADPH, 3 mM; magnesium chloride, 10 mM; acetonitrile, 1% (v/v). 7-EC (100 μM) was used as the positive control for enzyme activity in the microsomes of all species. Two negative controls, one without NADPH and the other using heat-treated microsomes (5 min in boiling water), were carried out to determine the stability of the test article. The total volume of incubation mixture was 5 mL each for the test article incubations and 1 mL each for the positive and negative controls.
as §2, with “shaking. Incubation mixtures were prepared at 0-4° C. (on ice).” for “shaking.”
[^14C]Compound I was separately incubated with mouse, rat, dog, monkey and human liver microsoomes fortified with NADPH for 1 hr at 37° C. The incubation mixtures were extracted with methanol and the extacts were analyzed by HPLC radiochromatograpby and LC/RAM/(+)ESI-MS and MS/MS.

tumors = settings: Proc Am Assoc Cancer Res 1999 40 Abs 1905; cited from earlier work
[11] = BDC rats, within 24 hr, average of two rats, total radioactivity

CC(=O)O[C@H]1C(=O)[C@@]2(C)[C@H]([C@H](OC(=O)c3ccccc3)[C@]3(O)C[C@H](OC(=O)[C@H](O)[C@@H](NC(=O)c4ccccc4)c4ccccc4)C(C)=C1C3(C)C)[C@]1(OC(C)=O)CO[C@@H]1C[C@@H]2O [paclitaxel]
efficacy after oral dosing (sc M109): without signs of any efficacy
antitumor activity on oral administration [1]: no evidence of antitumor activity
oral activity in human or animal models [2]: no oral activity
absorbed when administered orally [3]: less than 1%
attempts to demonstrate activity for orally administered drug (human tumor xenografts): unsuccessful

CC(=O)O[C@@]12CO[C@@H]1C[C@H](O)[C@@]1(C)C(=O)[C@H](O)C3=C(C)[C@@H](OC(=O)[C@H](O)[C@@H](NC(=O)OC(C)(C)C)c4ccccc4)C[C@@](O)([C@@H](OC(=O)c4ccccc4)[C@H]21)C3(C)C [TAXOTERE®, docetaxel]
oral activity in human or animal models [2]: no oral activity

O=C(O)CNC(=O)c1ccccc1 [Metabolite M3, hippuric acid]
% of the dose in urine accounted for by metabolite(s) ([4]; rats, 0-24 hr pooled urine): ~2.3%
% of total radioactivity in urine accounted for by metabolite(s) ([4]; rats, 0-24 hr pooled urine): ~56% and ~60%

COC(=O)O[C@@]12CO[C@@H]1C[C@H](O)[C@@]1(C)C(=O)[C@H](OC(C)=O)C3=C(C)[C@@H](OC(=O)[C@H](O)[C@@H](NC(=O)OC(C)(C)C)C(C)(C)C)C[C@@](O)([C@@H](OC(=O)c4ccccc4)C12)C3(C)C (some centres unmarked) [Compound I, 3′-tert-butyl-3′-N-tert-butyloxycarbonyl-4-deacetyl-3′-dephenyl-3′-N-debenzoyl-4-O-methoxycarbonyl-paclitaxel]
parent drug in the incubation mixture remained unchanged [5]: 31.5%
parent drug in the incubation mixture remained unchanged [6]: 72.5%
parent drug in the incubation mixture remained unchanged [7]: 59.7% and 58.7%
parent drug in the incubation mixture remained unchanged [8]: 2.9%
parent drug in the incubation mixture recovered unchanged [9]: 21.4%
rank order of metabolic stability in the liver microsomes of the five species [10]: rat>dog>mouse>human>monkey
total recovery of the administered dose in bile and urine ([4]; BDC rats, 24 hr, average): 29.6%
administered dose excreted in bile [4, 11]: 25.8%
administered dose excreted in urine [4, 11]: 3.9%
concentration at 24 h ([4]; male, Sprague-Dawley, rat, rats, at 24 hr after dosing, pooled plasma, read-out: concentration of Compound I in plasma (estimated)): 61 ng/mL
parent drug detected in bile, % of total radioactivity ([4]; rats, 0-24 h pooled bile): < 1%
concentration of total radioactivity in plasma ([4]; rats, at 24 hr, average): 349 ng-equiv./mL
oral absorption (estimated) ([4]; rats, from bile and urine recovery): at least 30%
parent drug detected in urine ([4]; rats, pooled urine): ≤ 1%

CC(=O)O[C@H]1C(=O)[C@@]2(C)[C@H]([C@H](OC(=O)c3ccccc3)[C@]34OC(=O)O[C@H]3[C@H](OC(=O)[C@H](O)[C@H](CC(C)C)NC(=O)OC(C)(C)C)C(C)=C1C4(C)C)[C@]1(OC(C)=O)CO[C@@H]1C[C@@H]2O [IDN-5109]
activity against tumors in mice after oral administration (tumors): oral activity
